Values joined by “and” are separate entries in the source; they are usually repeats but may differ in a detail not shown here. Equal entries are not always repeated. Inconclusive results and toxic doses are left out.
Test system: L1210 leukemia ip in BDF1 mice, survival T/C
Test: NCI In Vivo Anticancer Drug Screen. Data for tumor model L1210 Leukemia (intraperitoneal) in B6D2F1 (BDF1) mice
Conditions: endpoint: mean survival time, higher = longer survival
How it was run: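 Ratio derived from survival: compound-dosed mice over vehicle-dosed mice, all bearing a transplantable tumor.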

[1] = dose: 100.0 mg/kg/injection, schedule: Q04DX002 (ip), vehicle: Klucel (hydroxypropylcellulose) (HPC)
[2] = dose: 200.0 mg/kg/injection, schedule: Q04DX002 (ip), vehicle: Klucel (hydroxypropylcellulose) (HPC)
[3] = dose: 400.0 mg/kg/injection, schedule: Q04DX002 (ip), vehicle: Klucel (hydroxypropylcellulose) (HPC)
[4] = dose: 100.0 mg/kg/injection, schedule: Q04DX003 (ip), vehicle: saline with Tween-80
[5] = dose: 200.0 mg/kg/injection, schedule: Q04DX003 (ip), vehicle: saline with Tween-80
[6] = dose: 400.0 mg/kg/injection, schedule: Q04DX003 (ip), vehicle: saline with Tween-80
[7] = dose: 50.0 mg/kg/injection, schedule: Q01DX009 (ip), vehicle: saline
[8] = dose: 100.0 mg/kg/injection, schedule: Q01DX001 (ip), vehicle: water
[9] = dose: 200.0 mg/kg/injection, schedule: Q01DX001 (ip), vehicle: water
[10] = dose: 200.0 mg/kg/injection, schedule: Q01DX009 (ip), vehicle: saline with Tween-80
[11] = dose: 50.0 mg/kg/injection, schedule: Q01DX001 (ip), vehicle: saline
[12] = dose: 100.0 mg/kg/injection, schedule: Q01DX001 (ip), vehicle: saline
[13] = dose: 200.0 mg/kg/injection, schedule: Q01DX001 (ip), vehicle: saline
[14] = dose: 400.0 mg/kg/injection, schedule: Q01DX001 (ip), vehicle: saline
[15] = dose: 100.0 mg/kg/injection, schedule: Q01DX009 (ip), vehicle: Klucel (hydroxypropylcellulose) (HPC)
[16] = dose: 100.0 mg/kg/injection, schedule: Q04DX003 (ip), vehicle: Klucel (hydroxypropylcellulose) (HPC)
[17] = dose: 200.0 mg/kg/injection, schedule: Q01DX009 (ip), vehicle: Klucel (hydroxypropylcellulose) (HPC)
[18] = dose: 200.0 mg/kg/injection, schedule: Q04DX003 (ip), vehicle: Klucel (hydroxypropylcellulose) (HPC)
[19] = dose: 400.0 mg/kg/injection, schedule: Q04DX003 (ip), vehicle: Klucel (hydroxypropylcellulose) (HPC)
[20] = dose: 400.0 mg/kg/injection, schedule: Q01DX009 (ip), vehicle: Klucel (hydroxypropylcellulose) (HPC)
[21] = dose: 100.0 mg/kg/injection, schedule: Q01DX009 (ip), vehicle: saline with Tween-80

For CN(Cc1ccc(Cl)cc1)C(=S)Nc1ccccc1, the T/C [1] was 114 % of control, the T/C [2] was 92 % of control and the T/C [3] was 96 % of control.
With CC(=O)Nc1cccc(Cl)c1F the T/C [1] was 100 % of control, the T/C [2] was 93 % of control and the T/C [3] was 107 % of control.
With CCCCCCCCCCCCCCCCCCOC(C)OCCCCCCCCCCCCCCCCCC the T/C [4] was 89 % of control, the T/C [5] was 89 % of control and the T/C [6] was 87 % of control.
In the case of CN(Cc1ccccc1)/N=N/c1nc[nH]c1C(N)=O, the T/C (dose: 4.0 mg/kg/injection, schedule: Q01DX009 (ip), vehicle: saline with Tween-80) is reported as 98 % of control, the T/C (dose: 8.0 mg/kg/injection, schedule: Q01DX009 (ip), vehicle: saline with Tween-80) is reported as 103 % of control and the T/C (dose: 22.0 mg/kg/injection, schedule: Q01DX009 (ip), vehicle: saline with Tween-80) is reported as 98 % of control. The T/C (dose: 25.0 mg/kg/injection, schedule: Q01DX009 (ip), vehicle: water) was 122 % of control, the T/C (dose: 35.0 mg/kg/injection, schedule: Q01DX009 (ip), vehicle: saline with Tween-80) was 117 % of control and the T/C (dose: 50.0 mg/kg/injection, schedule: Q01DX001 (ip), vehicle: water) was 102 % of control. For the same compound, the T/C [7] was 124 % of control, the T/C (dose: 50.0 mg/kg/injection, schedule: Q04DX003 (ip), vehicle: water) was 105 % of control and the T/C (dose: 100.0 mg/kg/injection, schedule: Q01DX001 (ip), vehicle: other) was 104 % of control. For the same compound, the T/C [8] was 108 % of control, the T/C (dose: 100.0 mg/kg/injection, schedule: Q01DX009 (ip), vehicle: acetone) was 181 % of control and the T/C (dose: 100.0 mg/kg/injection, schedule: Q01DX009 (ip), vehicle: water) was 171 % of control and 175 % of control. For the same compound, the T/C (dose: 100.0 mg/kg/injection, schedule: Q04DX003 (ip), vehicle: other) was 102 % of control, the T/C (dose: 200.0 mg/kg/injection, schedule: Q01DX001 (ip), vehicle: other) was 108 % of control and the T/C [9] was 113 % of control. The T/C (dose: 200.0 mg/kg/injection, schedule: Q01DX009 (ip), vehicle: acetone) was 150 % of control, the T/C [10] was 176 % of control and the T/C (dose: 200.0 mg/kg/injection, schedule: Q01DX009 (ip), vehicle: water) was 106 % of control and 113 % of control. The T/C (dose: 200.0 mg/kg/injection, schedule: Q04DX003 (ip), vehicle: other) was 122 % of control, the T/C (dose: 400.0 mg/kg/injection, schedule: Q01DX001 (ip), vehicle: other) was 112 % of control and the T/C (dose: 400.0 mg/kg/injection, schedule: Q01DX009 (ip), vehicle: acetone) was 87 % of control. For the same compound, the T/C (dose: 400.0 mg/kg/injection, schedule: Q04DX003 (ip), vehicle: other) was 155 % of control.
For Cc1ccccc1C1=CCCCCC1, the T/C [11] was 93 % of control, the T/C [12] was 93 % of control and the T/C [13] was 98 % of control. For the same compound, the T/C [14] was 107 % of control.
In the case of Cc1cc(N(C)C)c(C(C)C)cc1O (tested in a mixture with another compound), the T/C (dose: 3.2 micrograms/kg/injection, schedule: Q01DX009 (ip), vehicle: saline) is reported as 95 % of control, the T/C (dose: 6.3 micrograms/kg/injection, schedule: Q01DX009 (ip), vehicle: saline) is reported as 90 % of control and the T/C (dose: 12.5 micrograms/kg/injection, schedule: Q01DX009 (ip), vehicle: saline) is reported as 105 % of control.
With O=C(OCc1ccc([N+](=O)[O-])o1)c1ccc(Cl)cc1 the T/C [12] was 97 % of control, the T/C [13] was 101 % of control and the T/C [14] was 92 % of control.
COc1ccc(C(=O)NC(=S)Nc2ccccc2F)cc1 was tested, and the T/C [15] was 93 % of control, the T/C [16] was 94 % of control and the T/C [17] was 90 % of control. For the same compound, the T/C [18] was 93 % of control and the T/C [19] was 94 % of control.
For Cc1cc(C(=O)C(C#N)=Nc2ccc(N(C)C)cc2)c(CN2C(=O)c3ccccc3C2=O)c(=O)n1C, the T/C [8] was 92 % of control, the T/C [9] was 94 % of control and the T/C (dose: 400.0 mg/kg/injection, schedule: Q01DX001 (ip), vehicle: water) was 94 % of control.
In the case of CC1CCCCN1C(=O)Nc1ccc(Cl)cc1[N+](=O)[O-] (stereo not drawn), the T/C [15] is reported as 100 % of control, the T/C [17] is reported as 91 % of control and the T/C [20] is reported as 92 % of control.
With CCCCCCCCCCCCC(O)C(=O)O (stereo not drawn) the T/C [16] was 95 % of control, the T/C [18] was 95 % of control and the T/C [19] was 94 % of control.
In the case of Cc1cccc(NC=O)c1, the T/C [21] is reported as 100 % of control, the T/C [4] is reported as 97 % of control and the T/C [10] is reported as 98 % of control. The T/C [5] was 102 % of control and the T/C (dose: 400.0 mg/kg/injection, schedule: Q01DX009 (ip), vehicle: saline with Tween-80) was 99 % of control.
For O=C(Nc1ccccc1C(=O)N/N=C/c1ccccc1Cl)c1ccccc1Cl, the T/C [15] was 90 % of control, the T/C [17] was 103 % of control and the T/C [20] was 86 % of control.
[NH-]c1ccccc1C(=O)O.[NH-]c1ccccc1C(=O)O.[Zn+2] was tested, and the T/C (dose: 12.5 mg/kg/injection, schedule: Q01DX009 (ip), vehicle: Klucel (hydroxypropylcellulose) (HPC)) was 98 % of control, the T/C (dose: 25.0 mg/kg/injection, schedule: Q01DX009 (ip), vehicle: Klucel (hydroxypropylcellulose) (HPC)) was 97 % of control and the T/C (dose: 25.0 mg/kg/injection, schedule: Q04DX003 (ip), vehicle: Klucel (hydroxypropylcellulose) (HPC)) was 97 % of control. For the same compound, the T/C (dose: 50.0 mg/kg/injection, schedule: Q01DX009 (ip), vehicle: Klucel (hydroxypropylcellulose) (HPC)) was 93 % of control, the T/C (dose: 50.0 mg/kg/injection, schedule: Q04DX003 (ip), vehicle: Klucel (hydroxypropylcellulose) (HPC)) was 90 % of control and the T/C [16] was 94 % of control.
CC(=O)OC12C=C(C)C(C3C(=O)OC(=O)C31)C(C)(C)C2 (stereo not drawn) was tested, and the T/C [7] was 97 % of control, the T/C (dose: 100.0 mg/kg/injection, schedule: Q01DX009 (ip), vehicle: saline) was 92 % of control and the T/C (dose: 200.0 mg/kg/injection, schedule: Q01DX009 (ip), vehicle: saline) was 102 % of control.
With O=C(N/N=C\c1ccccc1Cl)C(=O)N/N=C\c1ccccc1Cl the T/C [4] was 94 % of control, the T/C [5] was 94 % of control and the T/C [6] was 88 % of control.
With OC(CBr)c1ccc(Cl)cc1 (stereo not drawn) the T/C [21] was 96 % of control, the T/C [4] was 98 % of control and the T/C [10] was 96 % of control. The T/C [5] was 104 % of control and the T/C [6] was 89 % of control.
In the case of CCCCNC(=S)C(CC)CCCC (stereo not drawn), the T/C (dose: 100.0 mg/kg/injection, schedule: Q04DX002 (sc), vehicle: olive oil, sesame oil, peanut oil) is reported as 99 % of control, the T/C (dose: 200.0 mg/kg/injection, schedule: Q04DX002 (sc), vehicle: olive oil, sesame oil, peanut oil) is reported as 99 % of control and the T/C (dose: 400.0 mg/kg/injection, schedule: Q04DX002 (sc), vehicle: olive oil, sesame oil, peanut oil) is reported as 99 % of control.
For Nc1ccc(/C=C2\C=Cc3ccccc32)cc1, the T/C (dose: 8.5 mg/kg/injection, schedule: Q01DX009 (ip), vehicle: saline) was 98 % of control, the T/C (dose: 17.0 mg/kg/injection, schedule: Q01DX001 (ip), vehicle: acetone) was 98 % of control and the T/C (dose: 17.0 mg/kg/injection, schedule: Q01DX009 (ip), vehicle: saline) was 97 % of control. For the same compound, the T/C (dose: 35.0 mg/kg/injection, schedule: Q01DX001 (ip), vehicle: acetone) was 105 % of control, the T/C (dose: 35.0 mg/kg/injection, schedule: Q01DX009 (ip), vehicle: saline) was 101 % of control and the T/C (dose: 100.0 mg/kg/injection, schedule: Q01DX001 (ip), vehicle: olive oil, sesame oil, peanut oil) was 94 % of control.
COC1OC2COC(c3ccccc3)OC2C(O)C1N (stereo not drawn) was tested, and the T/C (dose: 50.0 mg/kg/injection, schedule: Q04DX003 (ip), vehicle: saline with Tween-80) was 93 % of control and the T/C [4] was 98 % of control.
In the case of CC(=O)/C=C(\C)OB(F)F, the T/C [11] is reported as 98 % of control and the T/C [12] is reported as 95 % of control.

Reference: PubChem BioAssay AID248 (DTP/NCI, 2004)
